Laboratory results published in patent publication US9133163B2, “Dihydropyrazole GPR40 modulators” (Bristol-Myers Squibb Company, priority 2012, dated 2015).
pEC50: −log10 of the molar value.

Legend:
C57BL6 mice = assay: Acute oral glucose tolerance test; assay type: in vivo; settings: % change in glucose AUC (0-180 min) from vehicle, 0.3 mg/kg oral; for Acute oral glucose tolerance: co-administered with glucose 2 g/kg
Experimental: Acute Oral Glucose Tolerance Test
Ten week old C57BL6 mice were housed individually and fasted for 5 hours on the day of study. Tail vein sampling was performed from nicked tails to obtain plasma samples. Baseline plasma samples were taken at t=0. Mice were orally treated with vehicle or compounds co-administered with glucose (2 g/kg). Sampling thereafter from tails of treated mice at 20, 40, 60, 120 and 180 min provided data used for generating glucose excursion curves from which 0-180 min blood glucose excursion profiles were generated. The area under the curve (AUC) allowed for assessment of glucose lowering by compound treatments. Blood samples were collected in EDTA-treated tubes (MICROVETTE® CB300, Sarstedt, Numbrecht, Germany), stored on ice and spun @ 6000 rpm for 10 minutes. Plasma glucose was analyzed on the same day using an AU680 Clinical Chemistry Analyzer (Beckman Coulter, Brea, Calif.). Statistical analysis is a one way ANOVA with Dunnett's post hoc test or two-way student's t test where appropriate. P values less than 0.05 were considered statistically significant.

hGPR40 [1] = target: T1, hGPR40 (Homo sapiens, UniProt O14842); assay: GPR40 IP-One HTRF assay in HEK293/GPR40 inducible cell lines; assay type: cell-based; parameters: expressed in transfected cells; settings: HEK293 cells with tetracycline-inducible human GPR40; read-out: hGPR40 IP1 EC50
Experimental: GPR40 IP-One HTRF Assays in HEK293/GPR40 Inducible Cell Lines
Human, mouse and rat GPR40-mediated intracellular IP-One HTRF assays were established using human embryonic kidney HEK293 cells stably transfected with a tetracycline-inducible human, mouse or rat GPR40 receptor. Cells were routinely cultured in growth medium containing DMEM (Gibco Cat. #12430-047), 10% qualified FBS (Sigma, Cat. #F2442), 200 μg/ml hygromycin (Invitrogen, Cat. #16087-010) and 1.5 μg/ml blasticidin (Invitrogen, Cat. #R210-01). About 12-15 million cells were passed into a T175 tissue culture flask (BD FALCON® 353112) with growth medium and incubated for 16-18 hours (overnight) at 370 C with 5% CO2. The next day, assay medium was exchanged with growth medium containing 1000 ng/mL of tetracycline (Fluka Analytical, Cat. #87128) to induce GPR40 expression for 18-24 hours at […] incubator with 5% CO2. After induction, the cells were washed with PBS (Gibco, Cat. #14190-036) and detached with Cell Stripper (CELLGRO®, Cat. #25-056-CL). 10-20 mL growth medium were added to the flask and cells were collected in 50 mL tubes (FALCON®, Cat. #352098) and spun at 1000 RPM for 5 minutes. Culture medium was aspirated and the cells were resuspended in 10 mL of 1× IP-One Stimulation Buffer from the Cisbio IP-One kit (Cisbio, Cat. #62IPAPEJ). The cells were diluted to 1.4×10^6 cells/mL in Stimulation Buffer.
Test compounds were 3-fold, 11-point serially diluted in DMSO in a REMP assay plate (Matrix Cat. #4307) by BIOCEL® (Agilent). The compounds were transferred into an Echo plate (LABCYTE, Cat. #LP-0200) and […] of diluted compounds were transferred to an assay plate (proxi-plate from Perkin Elmer, Cat. #6008289) by Echo acoustic nano dispenser (LABCYTE, model ECHO550). 14 μL of the diluted cells were then added to the assay plate by Thermo (SN 836 330) CombiDrop and incubated at room temperature for 45 minutes. Then 3 μL of IP1 coupled to dye D2 from the Cisbio IP-One kit were added to the assay plate followed by 3 μL of Lumi4TM-Tb cryptate K from the kit. The plate was further incubated at room for 1 hour before reading on the Envision (Perkin Elmer Model2101) with an HTRF protocol. Activation data for the test compound over a range of concentrations was plotted as percentage activation of the test compound (100%=maximum response). After correcting for background [(sample read-mean of low control)/(mean of high control−mean of low control)](low control is DMSO without any compound), EC50 values were determined. The EC50 is defined as the concentration of test compound which produces 50% of the maximal response and was quantified using the 4 parameter logistic equation to fit the data.

hGPR40 [2] = target: T1, hGPR40; assay: FDSS-based intracellular calcium assay; assay type: cell-based; parameters: 3xFLAG; expressed in transfected cells; settings: intracellular Ca2+ response, cells expressing GPR40
Experimental: FDSS-Based Intracellular Calcium Assay
Compounds are dissolved in DMSO and diluted to desired concentrations with assay buffer and added to the cells as 3× solution (20 μL per well). Run fluorescence/luminescence reader FDSS (Hamamatsu) to read intracellular Ca^2+ response.

T1 sequence (O14842 whole entry): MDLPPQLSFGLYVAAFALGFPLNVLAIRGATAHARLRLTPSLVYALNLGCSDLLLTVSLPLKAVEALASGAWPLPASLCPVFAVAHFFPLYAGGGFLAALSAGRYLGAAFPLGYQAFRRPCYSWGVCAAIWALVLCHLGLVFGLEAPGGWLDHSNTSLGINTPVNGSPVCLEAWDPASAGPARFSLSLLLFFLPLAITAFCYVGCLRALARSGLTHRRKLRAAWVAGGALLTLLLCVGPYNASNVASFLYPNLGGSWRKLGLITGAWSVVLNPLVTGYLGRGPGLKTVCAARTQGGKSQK

SMILES: COc1cc(N2CC[C@@H](Oc3ccc(N4N=C(C(F)(F)F)[C@@H](C)[C@@H]4CC(=O)O)cc3)[C@H](C)C2)c(Cl)cn1 (single isomer, unassigned) [Example 81, Isomer 2 (neutral form)]
- Acute oral glucose tolerance (C57BL6 mice): −54%
- pEC50 (hGPR40 [1]): 8.05
- pEC50 (hGPR40 [2]): 7.15

SMILES: CCOc1ccc(F)c(N2CC[C@@H](Oc3ccc(N4N=C(C(F)(F)F)[C@@H](C)[C@@H]4CC(=O)O)cc3)[C@H](C)C2)c1 [Example 29, 2-((4S,5S)-1-(4-(((3R,4R)-1-(5-Ethoxy-2-fluorophenyl)-3-methylpiperidin-4-yl)oxy)phenyl)-4-methyl-3-(trifluoromethyl)-4,5-dihydro-1H-pyrazol-5-yl)acetic acid]
- Acute oral glucose tolerance (average of two experiments) (C57BL6 mice; average of two experiments): −52%
- pEC50 (hGPR40 [1]): 7.96
- pEC50 (hGPR40 [2]): 6.81

SMILES: COc1cc(N2CCC(Oc3ccc(N4N=C(C(F)(F)F)[C@@H](C)[C@@H]4CC(=O)O)cc3)CC2)c(F)cn1 [Example 79, 2-((4S,5S)-1-(4-((1-(5-Fluoro-2-methoxypyridin-4-yl)piperidin-4-yl)oxy)phenyl)-4-methyl-3-(trifluoromethyl)-4,5-dihydro-1H-pyrazol-5-yl)acetic acid]
- pEC50 (hGPR40 [1]): 7.03
- pEC50 (hGPR40 [2]): 6.79

SMILES: [2H]C([2H])([2H])Oc1cc(N2CC[C@@H](Oc3ccc(N4N=C(C(F)(F)F)[C@@H](C)[C@@H]4CC(=O)O)cc3)[C@H](C)C2)c(Cl)cn1 [Example 87, 2-((4S,5S)-1-(4-(((3R,4R)-1-(5-Chloro-2-d3-methoxypyridin-4-yl)-3-methylpiperidin-4-yl)oxy)phenyl)-4-methyl-3-(trifluoromethyl)-4,5-dihydro-1H-pyrazol-5-yl)acetic acid]
- pEC50 (hGPR40 [1]): 8.22
- pEC50 (hGPR40 [2]): 7.13

SMILES: COc1ccc(F)c(N2CCC(Oc3ccc(N4N=C(C(F)(F)F)[C@@H](C)[C@@H]4CC(=O)O)cc3)CC2)c1 [Example 1, 2-((4S,5S)-1-(4-((1-(2-Fluoro-5-methoxyphenyl)piperidin-4-yl)oxy)phenyl)-4-methyl-3-(trifluoromethyl)-4,5-dihydro-1H-pyrazol-5-yl)acetic acid]
- Acute oral glucose tolerance (C57BL6 mice): −47%
- pEC50 (hGPR40 [1]): 7.77
- pEC50 (hGPR40 [2]): 6.94

SMILES: CCOc1ccc(F)c(N2CCC(Oc3ccc(N4N=C(C(F)(F)F)[C@@H](C)[C@@H]4CC(=O)O)cc3)C(CC)C2)c1 (single isomer, unassigned) [Example 25 (Isomer 2)]
- Acute oral glucose tolerance (C57BL6 mice): −38%
- pEC50 (hGPR40 [1]): 7.68
- pEC50 (hGPR40 [2]): 6.95

SMILES: COc1cc(N2CCC(Oc3ccc(N4N=C(C(F)(F)F)[C@@H](C)[C@@H]4CC(=O)O)cc3)CC2)c(Cl)cn1 [Example 77, 2-((4S,5S)-1-(4-((1-(5-Chloro-2-methoxypyridin-4-yl)piperidin-4-yl)oxy)phenyl)-4-methyl-3-(trifluoromethyl)-4,5-dihydro-1H-pyrazol-5-yl)acetic acid]
- Acute oral glucose tolerance (C57BL6 mice): −38%
- pEC50 (hGPR40 [1]): 7.70
- pEC50 (hGPR40 [2]): 6.96

SMILES: CCOc1cc(F)c(F)c(N2CCC(Oc3ccc(N4N=C(C(F)(F)F)[C@@H](C)[C@@H]4CC(=O)O)cc3)CC2)c1 [Example 17, 2-((4S,5S)-1-(4-((1-(5-Ethoxy-2,3-difluorophenyl)piperidin-4-yl)oxy)phenyl)-4-methyl-3-(trifluoromethyl)-4,5-dihydro-1H-pyrazol-5-yl)acetic acid]
- pEC50 (hGPR40 [1]): 6.53
- pEC50 (hGPR40 [2]): 6.54

SMILES: CCc1ccc(F)c(N2CCC(Oc3ccc(N4N=C(C(F)(F)F)[C@@H](C)[C@@H]4CC(=O)O)cc3)CC2)c1 [Example 65, 2-((4S,5S)-1-(4-((1-(5-Ethyl-2-fluorophenyl)piperidin-4-yl)oxy)phenyl)-4-methyl-3-(trifluoromethyl)-4,5-dihydro-1H-pyrazol-5-yl)acetic acid]
- pEC50 (hGPR40 [1]): 6.53
- pEC50 (hGPR40 [2]): 6.23

SMILES: CCOc1ccc(F)c(N2CCC(Oc3ccc(N4N=C(c5ccc(C#N)cc5)[C@@H](C)[C@@H]4CC(=O)O)cc3)CC2)c1 [Example 93, 2-((4S,5S)-3-(4-Cyanophenyl)-1-(4-((1-(5-ethoxy-2-fluorophenyl)piperidin-4-yl)oxy)phenyl)-4-methyl-4,5-dihydro-1H-pyrazol-5-yl)acetic acid]
- Acute oral glucose tolerance (C57BL6 mice): −56%
- pEC50 (hGPR40 [1]): 8.15
- pEC50 (hGPR40 [2]): 7.09

SMILES: COc1cc(F)c(F)c(N2CCC(Oc3ccc(N4N=C(C(F)(F)F)[C@@H](C)[C@@H]4CC(=O)O)cc3)CC2)c1 [Example 16, 2-((4S,5S)-1-(4-((1-(2,3-Difluoro-5-methoxyphenyl)piperidin-4-yl)oxy)phenyl)-4-methyl-3-(trifluoromethyl)-4,5-dihydro-1H-pyrazol-5-yl)acetic acid]
- pEC50 (hGPR40 [1]): 6.88
- pEC50 (hGPR40 [2]): 6.56

SMILES: COc1cccc(N2CCC(Oc3ccc(N4N=C(C(F)(F)F)[C@@H](C)[C@@H]4CC(=O)O)cc3)CC2)c1 [Example 40, 2-((4S,5S)-1-(4-((1-(3-Methoxyphenyl)piperidin-4-yl)oxy)phenyl)-4-methyl-3-(trifluoromethyl)-4,5-dihydro-1H-pyrazol-5-yl)acetic acid]
- pEC50 (hGPR40 [1]): 6.97
- pEC50 (hGPR40 [2]): 6.21

SMILES: CC[C@@H]1C(C(F)(F)F)=NN(c2ccc(OC3CCN(c4cc(OC)ccc4F)CC3)cc2)[C@H]1CC(=O)O (single isomer, unassigned) [Example 88, Isomer 1]
- pEC50 (hGPR40 [1]): 7.74
- pEC50 (hGPR40 [2]): 7.11

SMILES: CCOc1ccc(F)c(N2CCC(Oc3ccc(N4N=C(C(F)(F)F)[C@@H](C)[C@@H]4CC(=O)O)cc3)C(CC(C)C)C2)c1 (single isomer, unassigned) [Example 27 (Isomer 2)]
- pEC50 (hGPR40 [1]): 7.08
- pEC50 (hGPR40 [2]): 7.47
